In one experiment the target is T1, canine TRPM8 (Canis lupus familiaris, UniProt Q1A7N1).
T1 construct: expressed in transfected cells
T1 sequence (Q1A7N1 1-1104): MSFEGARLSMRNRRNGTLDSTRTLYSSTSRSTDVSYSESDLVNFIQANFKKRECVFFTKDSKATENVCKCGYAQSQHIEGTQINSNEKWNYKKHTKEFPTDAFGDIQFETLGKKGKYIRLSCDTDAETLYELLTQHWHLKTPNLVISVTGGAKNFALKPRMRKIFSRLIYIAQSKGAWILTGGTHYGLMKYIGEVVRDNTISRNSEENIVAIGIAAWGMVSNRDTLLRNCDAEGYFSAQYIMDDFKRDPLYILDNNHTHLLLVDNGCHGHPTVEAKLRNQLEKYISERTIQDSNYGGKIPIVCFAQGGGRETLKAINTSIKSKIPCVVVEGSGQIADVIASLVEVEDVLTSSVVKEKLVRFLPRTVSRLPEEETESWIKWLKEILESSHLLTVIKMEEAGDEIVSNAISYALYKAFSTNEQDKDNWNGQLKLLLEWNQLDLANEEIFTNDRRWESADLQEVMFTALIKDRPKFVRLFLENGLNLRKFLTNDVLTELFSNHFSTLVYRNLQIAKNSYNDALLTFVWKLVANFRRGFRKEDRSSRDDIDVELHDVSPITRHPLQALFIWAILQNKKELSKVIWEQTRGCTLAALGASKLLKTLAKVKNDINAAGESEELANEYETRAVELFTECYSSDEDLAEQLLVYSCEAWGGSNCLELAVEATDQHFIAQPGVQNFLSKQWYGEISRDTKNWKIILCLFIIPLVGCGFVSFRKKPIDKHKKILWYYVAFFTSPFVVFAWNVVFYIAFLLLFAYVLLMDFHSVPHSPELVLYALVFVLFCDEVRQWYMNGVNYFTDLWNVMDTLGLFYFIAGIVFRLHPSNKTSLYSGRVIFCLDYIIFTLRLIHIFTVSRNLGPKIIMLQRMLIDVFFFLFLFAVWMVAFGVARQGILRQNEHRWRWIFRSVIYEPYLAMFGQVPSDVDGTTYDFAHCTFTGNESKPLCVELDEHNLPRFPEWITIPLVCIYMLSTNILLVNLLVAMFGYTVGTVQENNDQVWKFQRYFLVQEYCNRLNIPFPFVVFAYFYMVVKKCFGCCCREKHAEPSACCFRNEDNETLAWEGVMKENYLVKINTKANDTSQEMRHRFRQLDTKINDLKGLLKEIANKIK
As to the kind of experiment: In vitro canine TRPM8 functional assay (Ca2+-sensitive dye, icilin activation; Table 4 TRPM8 Screening). The class given is cell-based. To be noted: compound at 0.5 μM; HEK293 cells expressing canine TRPM8, icilin activation. Here is the method: The functional activity of compounds of Formula (I) was determined by measuring changes in intracellular calcium concentration using a Ca^2+-sensitive fluorescent dye. The changes in fluorescent signal were monitored by a fluorescence plate reader, either a FLIPR™ (Molecular Devices) or FDSS (Hamamatsu).
HEK293 cells stably expressing canine TRPM8 were routinely grown as monolayers in Dulbecco's minimum essential medium supplemented with 10% FBS, 1 mM L-glutamine, 100 units/mL penicillin, 100 ug/mL streptomycin and 400 μg/mL G418. Cells were maintained in 5% CO2 at 37° C. At 24 hrs prior to assay, cells were seeded in clear-base poly-D-lysine coated 384-well plates (BD Biosciences, NJ, USA) at a density of 5,000 cells per well in culture medium and grown overnight in 5% CO2 at 37° C. On assay day, growth media was removed and cells were loaded with Calcium 3 Dye (Molecular Devices) for 35 min at 37° C., under 5% CO2 and then for 25 min at room temperature and atmosphere. Subsequently, cells were tested for agonist-induced increases in intracellular Ca^2+ levels using FLIPR™ or FDSS. Cells were challenged with a compound of Formula (I) (at varying concentrations) and intracellular Ca^2+ was measured for 5 min prior to the addition of icilin to all wells to achieve a final concentration which produces approximately an 80% maximal response.
Basal FI was subtracted prior to normalizing data to percent of maximal response. Curves were generated using the average of quadruplicate wells for each data point, were analyzed using nonlinear regression of either sigmoidal dose response or sigmoidal dose response (variable slope). Finally, the EC50 and IC50 values were calculated with the best-fit dose curve determined by GraphPad Prism.
Take `CCOP(=O)(OCC)C(Cc1cccc(OC(F)(F)F)c1)c1sc2ccccc2c1Br` (racemic) [Cpd 145]: the “% I (0.5 μM)” value is 103, %.

Take `CC(C)OP(=O)(OC(C)C)[C@H](Cc1ccc(F)c(F)c1)c1sc2ccccc2c1Br` [Cpd 235, (R)-[1-(3-Bromo-benzo[b]thiophen-2-yl)-2-(3,4-difluoro-phenyl)-ethyl]-phosphonic acid diisopropyl ester]: the “% I (0.5 μM)” value is recorded as 93%.

Regarding `CCOP(=O)(OCC)C(Cc1c(F)c(F)c(OC)c(F)c1F)c1sc2ccccc2c1Br` (racemic) [Cpd 160], the “% I (0.5 μM)” value came out at 87%.

As to `COc1cc(CC(c2sc3ccccc3c2Br)P(=O)(OC(C)C)OC(C)C)ccc1F` (stereo not drawn) [Cpd 157], the “% I (0.5 μM)” value is reported as 98%.

`CCOP(=O)(OCC)C(Cc1c(F)c(F)c(O)c(F)c1F)c1sc2ccccc2c1Br` (racemic) [Cpd 228]: the “% I (0.5 μM)” value is 94%.

As to `CC(C)OP(=O)(OC(C)C)C(Cc1cccc(O)c1F)c1sc2ccccc2c1Br` (racemic) [Cpd 230], the “% I (0.5 μM)” value is 97%.

For the compound `CCOP(=O)(OCC)C(Cc1ccc(O)cc1)c1sc2ccccc2c1Br` (stereo not drawn) [Cpd 324], the “% I (0.5 μM)” value was 54%.

Staying with this experiment, now noted: compound at 0.5 μM; HEK293 cells expressing canine TRPM8, icilin activation; read-out: % I (0.5 μM).
Take `CC(C)OP(=O)(OC(C)C)C(Cc1ccc(F)c(C(F)(F)F)c1)c1c(Br)c2ccccc2n1S(C)(=O)=O` (stereo not drawn) [Cpd 330, [1-(3-Bromo-1-methanesulfonyl-1H-indol-2-yl)-2-(4-fluoro-3-trifluoromethyl-phenyl)-ethyl]-phosphonic acid diisopropyl ester]: the inhibition at 0.5 µM worked out at 103%.

The same experiment, now with this note: compound at 1 μM; HEK293 cells expressing canine TRPM8, icilin activation.
As for `CCOP(=O)(OCC)C(Cc1cc2c(cc1Cl)OCO2)c1cc2ccccc2s1` (stereo not drawn) [Cpd 112], the “% I (1 μM)” value was determined as 42%.

As to `CCOP(=O)(OCC)C(Cc1c(Cl)cccc1Cl)c1sc2ccccc2c1C` (stereo not drawn) [Cpd 54], the “% I (1 μM)” value stood at 100%.

`CCOP(=O)(OCC)C(Cc1ccccc1)c1cc2ccccc2s1` (stereo not drawn) [Cpd 74]: the “% I (1 μM)” value is listed as 92%.

Take `CC(C)OP(=O)(OC(C)C)C(Cc1ccc(F)cc1)c1sc2cc(Br)ccc2c1Br` (stereo not drawn) [Cpd 200]: the “% I (1 μM)” value is on record as 81%.

With `CCOP(=O)(OCC)C(Cc1cc(C(F)(F)F)ccc1Cl)c1sc2ccccc2c1C` (stereo not drawn) [Cpd 99], the “% I (1 μM)” value was found to be 100%.

On to `CCOP(=O)(OCC)C(Cc1cccc(OC(F)(F)F)c1)c1sc2ccccc2c1C` (stereo not drawn) [Cpd 57], for which the “% I (1 μM)” value was 100%.

Regarding `CC(C)OP(=O)(OC(C)C)C(Cc1ccccc1F)c1sc2ccccc2c1Br` (stereo not drawn) [Cpd 196], the “% I (1 μM)” value was 100%.

Take `CCC(C)P(=O)(C(C)CC)C(Cc1ccc(F)c(F)c1)c1sc2ccccc2c1Br` (stereo not drawn) [Cpd 203]: the “% I (1 μM)” value worked out at 96%.

Take `CCOP(=O)(CC(C)C)C(Cc1ccc(F)c(F)c1)c1sc2ccccc2c1C` (stereo not drawn) [Cpd 36, [2-(3,4-Difluoro-phenyl)-1-(3-methyl-benzo[b]thiophene-2-yl)-ethyl]-isobutyl-phosphonic acid ethyl ester]: the “% I (1 μM)” value was determined as 100%.

As to `CC(C)OP(=O)(OC(C)C)C(Cc1ccc(F)c(F)c1)c1sc2ccccc2c1C1CCCC1` (stereo not drawn) [Cpd 38], the “% I (1 μM)” value was 99%.

With `CCOP(=O)(OCC)C(Cc1cc2ccccc2s1)c1cc2ccccc2s1` (stereo not drawn) [Cpd 90], the “% I (1 μM)” value is recorded as 89%.

For the compound `CCOP(=O)(OCC)C(Cc1cc(C(F)(F)F)cc(Cl)c1F)c1sc2ccccc2c1C` (stereo not drawn) [Cpd 73], the “% I (1 μM)” value is reported as 100%.

As to `CCOP(=O)(OCC)C(Cc1cc(C(F)(F)F)ccc1F)c1sc2ccccc2c1C` (stereo not drawn) [Cpd 67], the “% I (1 μM)” value was found to be 100%.

As for `CCOP(=O)(OCC)C(Cc1ccccc1C(F)(F)F)c1cc2ccccc2s1` (stereo not drawn) [Cpd 102], the “% I (1 μM)” value amounted to 86%.

Turning to `CCOP(=O)(OCC)C(Cc1ccccc1C)c1cc2ccccc2s1` (stereo not drawn) [Cpd 89], the “% I (1 μM)” value is 91%.

Take `CCOP(=O)(OCC)C(Cc1cccc(C(F)(F)F)c1F)c1sc2ccccc2c1C` (stereo not drawn) [Cpd 37]: the “% I (1 μM)” value was determined as 100%.

As for `CCOP(=O)(OCC)C(Cc1cccc(Cl)c1Cl)c1sc2ccccc2c1C` (stereo not drawn) [Cpd 35], the “% I (1 μM)” value worked out at 100%.

For the compound `CC(C)OP(=O)(OC(C)C)C(Cc1ccc(F)c(F)c1)c1sc2ccccc2c1C(C)C` (stereo not drawn) [Cpd 19], the “% I (1 μM)” value came to 100%.

The same experiment, now with this note: compound at 5 μM; HEK293 cells expressing canine TRPM8, icilin activation.
On to `CCOP(=O)(OCC)C(Cc1ccccc1C)c1cc2ccccc2s1` (stereo not drawn) [Cpd 89], for which the “% I (5 μM)” value amounted to 100%.

The values above are taken from patent US7897781B2, “Cold menthol receptor-1 antagonists” (Janssen Pharmaceutica NV, priority 2006, dated 2011).
